Experimental data as given in patent publication US5807854A, “Pyrimidone derivatives with antifungal activity” (J. Uriah & Cia. S.A., priority 1995, dated 1998).
Converted amounts (≈) assume the structure as drawn.

Columns and labels:
C. albicans = test: In vitro activity by the agar dilution method, C. albicans; format: cell-based; conditions: Candida albicans; Kimmig's agar, 25° C., 48 h; read-out: MIC (minimal inhibitory concentration), C. albicans
Method: (§1) In vitro activity was evaluated against C. albicans, C. krusei, and Aspergillus fumigatus by the agar dilution method. Test strains were either clinical isolates or were obtained from ATCC. Stock solutions containing 800 μg/mL were prepared by solving the test products in 50% ethanol. The culture medium used was Kimmig's agar (K. A., E. Merck) supplemented with 0.5% glycerol. Plates containing serial dilutions (80 to 0.025 gg/imL) of the test products were inoculated with 10 μL of the fungal inocula, containing 10^5 colony forming units (cfu)/mL. Plates were incubated at 25° C. during 48 h for Candida sp. and during 5 days for Apergillus fumigatus. Following incubation MICs (minimal inhibitory concentrations) were determined.

C. krusei = test: In vitro activity by the agar dilution method, C. krusei; format: cell-based; conditions: Pichia kudriavzevii; Kimmig's agar, 25° C., 48 h; read-out: MIC (minimal inhibitory concentration), C. krusei
Method: as §1

Aspergillus fumigatus = test: In vitro activity by the agar dilution method, Aspergillus fumigatus; format: cell-based; conditions: 120 h, Kimmig's agar, 25° C., 5 days, read-out: MIC (minimal inhibitory concentration), Asp. fumigatus
Method: as §1

Candida albicans = test: In Vivo Activity (Systemic Candidiasis); conditions: po, 576 h, male mice, i.v. infection, read-out: protection on the day where all the animals in the control group had died; for responders at 1 mg/kg: orally at 1 mg/kg at 1, 4 and 24 h after infection; for responders at 10 mg/kg: orally at 10 mg/kg (asterisk) at 1, 4 and 24 h after infection
Method: Groups of 10 male mice were inoculated i.v. with 0.2 mL of a suspension containing (2-8)×10^7 cfu/mL of Candida albicans. Compounds were administered orally at 1 mg/kg (or at 10 mg/kg for those compounds marked with an asterisk) at times 1, 4 and 24 h after infection.

systemic aspergillosis = test: In Vivo Activity (Systemic Aspergillosis); design: species or system mice; conditions: p.o. 20 mg/kg/day, 5 days; control mortality on day 25 was 90%

Structure (SMILES) | MIC (C. albicans) [µg/mL] | MIC (C. krusei) [µg/mL] | MIC (Aspergillus fumigatus) [µg/mL] | responders at 1 mg/kg (Candida albicans) [%] | protection on day 25 postinfection (systemic aspergillosis) | responders at 10 mg/kg (Candida albicans) [%]
C[C@@H](n1cnc2cc(OCC(F)(F)F)ccc2c1=O)[C@](O)(Cn1cncn1)c1ccc(F)cc1F [Example 20, (1R,2R)-3-[2-(2,4-Difluorophenyl)-2-hydroxy-1-methyl-3-(1H-1,2,4-triazol-1-yl)propyl]-7-(2,2,2-trifluoroethoxy)quinazolin-4(3H)-one] | 0.31 (≈ 0.626 µM) | 1.25 (≈ 2.52 µM) | 10 (≈ 20.2 µM) | 100 |  | 
C[C@@H](n1cnc2cc(-c3ccc(C#N)cc3)sc2c1=O)[C@](O)(Cn1cncn1)c1ccc(F)cc1F [Example 32, (1R,2R)-4-[3-[2-(2,4-Difluorophenyl)-2-hydroxy-1-methyl-3-(1H-1,2,4-triazol-1-yl)propyl]-4-oxo-3,4-dihydrothieno[3,2-d]pyrimidin-6-yl]benzonitrile] |  |  |  | 100 | 60-100% | 
C[C@@H](n1cnc2cc(C(F)(F)F)ccc2c1=O)[C@](O)(Cn1cncn1)c1ccc(F)cc1F [Example 16, (1R,2R)-3-[2-(2,4-Difluorophenyl)-2-hydroxy-1-methyl-3-(1H-1,2,4-triazol-1-yl)propyl]-7-trifluoromethylquinazolin-4(3H)-one] | ≤ 0.03 | 0.63 (≈ 1.35 µM) | 2.5 (≈ 5.37 µM) | 100 | 60-100% | 
C[C@@H](n1cnc2cc(Br)c(F)cc2c1=O)[C@](O)(Cn1cncn1)c1ccc(F)cc1F [Example 75, (1R,2R)-7-Bromo-3-[2-(2,4-difluorophenyl)-2-hydroxy-1-methyl-3-(1H-1,2,4-triazol-1-yl)propyl]-6-fluoroquinazolin-4(3H)-one] | 0.15 (≈ 0.303 µM) | 1.25 (≈ 2.53 µM) | 2.5 (≈ 5.06 µM) | 100 |  | 
C[C@@H](n1cnc2cc(OCC(F)(F)C(F)F)ccc2c1=O)[C@](O)(Cn1cncn1)c1ccc(F)cc1F [Example 17, (1R,2R)-3-[2-(2,4-Difluorophenyl)-2-hydroxy-1-methyl-3-(1H-1,2,4-triazol-1-yl)propyl]-7-(2,2,3,3-tetrafluoropropoxy)quinazolin-4(3H)-one] | ≤ 0.03 | 0.63 (≈ 1.19 µM) | 20 (≈ 37.9 µM) | 100 |  | 
C[C@@H](n1cnc2cc(I)ccc2c1=O)[C@](O)(Cn1cncn1)c1ccc(F)cc1F [Example 74, (1R,2R)-3-[2-(2,4-Difluorophenyl)-2-hydroxy-1-methyl-3-(1-H-1,2,4-triazol-1-yl)propyl]-7-iodoquinazolin-4(3H)-one] | ≤ 0.03 | 0.31 (≈ 0.592 µM) | 0.31 (≈ 0.592 µM) | 100 |  | 
C[C@@H](n1cnc2cc(Cl)ccc2c1=O)[C@](O)(Cn1cncn1)c1ccc(F)cc1F [Example 1, (1R,2R)-7-Chloro-3-[2-(2,4-difluorophenyl)-2-hydroxy-1-methyl-3-(1H-1,2,4-triazol-1-yl)propyl]quinazolin-4(3H)-one] | ≤ 0.03 | 0.63 (≈ 1.46 µM) | 0.31 (≈ 0.718 µM) |  | 60-100% | 100
C[C@@H](n1cnc2cc(C#N)ccc2c1=O)[C@](O)(Cn1cncn1)c1ccc(F)cc1F [Example 2, (1R,2R)-7-Cyano-3-[2-(2,4-difluorophenyl)-2-hydroxy-1-methyl-3-(1H-1,2,4-triazol-1-yl)propyl]quinazolin-4(3H)-one] | ≤ 0.03 | 1.25 (≈ 2.96 µM) | 1.25 (≈ 2.96 µM) |  | 60-100% | 
C[C@@H](n1cnc2cc(Br)ccc2c1=O)[C@](O)(Cn1cncn1)c1ccc(F)cc1F [Example 73, (1R,2R)-7-Bromo-3-[2-(2,4-difluorophenyl)-2-hydroxy-1-methyl-3-(1H-1,2,4-triazol-1-yl)propyl]quinazolin-4(3H)-one] | ≤ 0.03 | 0.31 (≈ 0.651 µM) | 0.31 (≈ 0.651 µM) |  | 60-100% | 100

More lines, main results first:

MIC (C. albicans) [µg/mL] | MIC (C. krusei) [µg/mL] | MIC (Aspergillus fumigatus) [µg/mL] | Structure (SMILES) | responders at 1 mg/kg (Candida albicans) [%] | protection on day 25 postinfection (systemic aspergillosis) | responders at 10 mg/kg (Candida albicans) [%]
0.31 (≈ 0.562 µM) | 0.63 (≈ 1.14 µM) | 1.25 (≈ 2.27 µM) | CONC(=N)c1ccc(-c2cc3ncn([C@H](C)[C@](O)(Cn4cncn4)c4ccc(F)cc4F)c(=O)c3s2)cc1 [Example 67, (1R,2R)-3-[2-(2,4-Difluorophenyl)-2-hydroxy-1-methyl-3-(1H-1,2,4-triazol-1-yl)propyl]-6-[4-[imino(methoxyamino)methyl]phenyl]thieno[3,2-d]pyrimidin-4(3H)-one] | 100 |  | 
≤ 0.03 | 2.5 (≈ 5.79 µM) | 40 (≈ 92.6 µM) | C[C@@H](n1cnc2ccc(Cl)cc2c1=O)[C@](O)(Cn1cncn1)c1ccc(F)cc1F [Example 7, (1R,2R)-6-Chloro-3-[2-(2,4-difluorophenyl)-2-hydroxy-1-methyl-3-(1H-1,2,4-triazol-1-yl)propyl]quinazolin-4(3H)-one] | 100 |  | 
≤ 0.03 | 0.31 (≈ 0.646 µM) | 10 (≈ 20.9 µM) | C[C@@H](n1cnc2cc(-c3ccc(F)cc3)sc2c1=O)[C@](O)(Cn1cncn1)c1ccccc1F [Example 81, (1R,2R)-6-(4-Fluorophenyl)-3-[2-(2-fluorophenyl)-2-hydroxy-1-methyl-3-(1H-1,2,4-triazol-1-yl)propyl]thieno[3,2-d]pyrimidin-4(3H)-one] | 100 |  | 
≤ 0.03 | 0.07 (≈ 0.136 µM) | 2.5 (≈ 4.86 µM) | C[C@@H](n1cnc2cc(-c3ccc(Cl)cc3)sc2c1=O)[C@](O)(Cn1cncn1)c1ccc(F)cc1F [Example 31, (1R,2R)-6-(4-Chlorophenyl)-3-[2-(2,4-difluorophenyl)-2-hydroxy-1-methyl-3-(1H-1,2,4-triazol-1-yl)propyl]thieno[3,2-d]pyrimidin-4(3H)-one] | 100 | 60-100% | 
≤ 0.03 | 0.15 (≈ 0.286 µM) | 1.25 (≈ 2.39 µM) | C[C@@H](n1cnc2cc(Oc3ccc(Cl)cc3)ccc2c1=O)[C@](O)(Cn1cncn1)c1ccc(F)cc1F [Example 39, (1R,2R)-7-(4-Chlorophenoxy)-3-[2-(2,4-difluorophenyl)-2-hydroxy-1-methyl-3-(1H-1,2,4-triazol-1-yl)propyl]quinazolin-4(3H)-one] | 100 |  | 
≤ 0.03 | 0.15 (≈ 0.302 µM) | 1.25 (≈ 2.51 µM) | C[C@@H](n1cnc2cc(-c3ccc(F)cc3)sc2c1=O)[C@](O)(Cn1cncn1)c1ccc(F)cc1F [Example 76, (1R,2R)-3-[2-(2,4-Difluorophenyl)-2-hydroxy-1-methyl-3-(1-H-1,2,4-triazol-1-yl)propyl]-6(4-fluorophenyl)thieno[3,2-d]pyrimidin-4(3H)-one] | 100 |  | 
